The values that follow come from US11440886B2, “Anti-inflammatory compound, and preparation and use thereof” (E-Nitiate Biopharmaceuticals (Hangzhou) Co., Ltd., priority 2018, dated 2022).

By IC50 is commonly meant the point on the concentration scale where inhibition reaches its midpoint.

Sequence of human recombinant PDE4B1 enzyme (Q07343 whole entry): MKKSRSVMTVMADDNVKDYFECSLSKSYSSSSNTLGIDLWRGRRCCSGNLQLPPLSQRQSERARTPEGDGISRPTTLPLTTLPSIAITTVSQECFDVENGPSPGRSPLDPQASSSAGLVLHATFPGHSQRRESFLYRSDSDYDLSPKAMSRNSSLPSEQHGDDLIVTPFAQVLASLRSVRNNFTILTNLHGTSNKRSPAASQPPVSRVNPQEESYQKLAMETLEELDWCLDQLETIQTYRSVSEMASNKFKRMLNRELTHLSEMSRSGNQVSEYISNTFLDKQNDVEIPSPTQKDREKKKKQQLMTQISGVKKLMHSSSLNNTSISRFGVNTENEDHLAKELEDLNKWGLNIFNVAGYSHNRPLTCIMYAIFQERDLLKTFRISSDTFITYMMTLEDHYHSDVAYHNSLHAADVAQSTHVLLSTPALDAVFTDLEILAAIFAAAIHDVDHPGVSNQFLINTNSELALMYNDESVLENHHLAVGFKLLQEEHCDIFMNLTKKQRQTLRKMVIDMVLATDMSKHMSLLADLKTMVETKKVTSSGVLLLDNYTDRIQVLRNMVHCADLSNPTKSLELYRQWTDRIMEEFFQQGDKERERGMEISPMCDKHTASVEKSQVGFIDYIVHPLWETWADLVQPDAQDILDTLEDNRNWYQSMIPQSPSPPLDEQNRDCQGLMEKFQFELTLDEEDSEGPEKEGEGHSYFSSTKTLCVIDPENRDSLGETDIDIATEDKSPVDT

The experiment concerns the target human recombinant PDE4B1 enzyme (Homo sapiens (Human), UniProt Q07343). The experiment can be described thus: Inhibition of PDE4B1 activity by cAMP HTRF assay. The format is biochemical. The conditions noted are these: human recombinant PDE4B1, cAMP 40 nM, pH 7.4. Here is the method: Determination of the inhibition of the compounds on PDE4B1 activity by using cAMP HTRF® assay
The inhibitory effect of the compounds on human PDE4B1 enzyme activity was determined by quantifying the 5′-adenosine monophosphate (5′-AMP) formed from 3′,5′-cyclic adenosine monophosphate (cAMP).
The test compound or water (control) and human recombinant PDE4B1 enzyme (4.8 U) were mixed in a buffer solution (pH 7.4) consisting of 1× Hanks' balanced salt solution (HBSS), 5 mM HEPES, 3 mM MgCl2, and 0.1% BSA and incubated for 10 min. A cAMP enzyme substrate (final concentration 40 nM) was added, and the mixture was incubated at room temperature for 60 min. Then a fluorescent acceptor (Dye2 labeled with cAMP), a fluorescent donor (anti-cAMP antibody labeled with europium cryptate) and a non-specific phosphodiesterase inhibitor IBMX (3-isobutyl-1-methyl xanthine; final concentration 1 mM) were added. After 60 min, the fluorescence transfer related to the amount of remaining cAMP was measured on a microplate reader (Rubystar, BMG) at λex=337 nm, λem=620 nm and λem=665 nm. The enzyme activity is calculated from the ratio of the signals measured at 665 nm and 620 nm. The results are expressed as percent inhibition of the enzyme activity of the control (without PDE4 inhibitor). The enzyme was omitted for measurement of the basic control. The IC50 value (IC50=the concentration that caused the half-maximum inhibition of the specific activity of the control) is derived from dose-response measurements with eight different concentrations (n=2; repeated 2 times)
Regarding `COc1ccc(C(=O)Cn2c(C)cc(=O)cc2C)cc1OC1CCCC1` [Example 23, 1-(2-(3-cyclopentyloxy-4-methoxyphenyl)-2-oxoethyl)-2,6-dimethylpyridin-4(1H)-one], the half-maximal inhibitory concentration (IC50) turned out to be 5 nM. Then `COc1ccc(C(=O)Cn2c(C)cc(=O)cc2C)cc1OCC=C(C)C` [Example 27, 1-(2-(3-((3-methylbut-2-en-1-yl)oxy)-4-methoxyphenyl)-2-oxoethyl)-2,6-dimethylpyridin-4(1H)-one], with 65 nM.

Turning to `CC#C/C(=C\n1c(C)cc(=O)cc1C)c1ccc(OC)c(OCC2CC2)c1` [Example 105, (Z)-1-(2-(3-cyclopropylmethoxy-4-methoxyphenyl)pent-1-en-3-yn-1-yl)-2,6-dimethylpyridin-4(1H)-one], the concentration for half-maximal inhibition (IC50) is 3 nM. Take `COc1ccc(/C=C/n2c(C)cc(=O)cc2C)cc1O[C@H]1CC[S+]([O-])C1` (single isomer, unassigned) [Example 83-1]: the IC50 is 550 nM. Then `Cc1cc(=O)cc(C)n1/C=C/c1ccc(OC(F)F)c(O[C@H]2CCS(=O)(=O)C2)c1` [Example 99, (S,E)-1-(3-(1,1-dioxotetrahydrothiophen-3-yl)oxy-4-difluoromethoxystyryl)-2,6-dimethylpyridin-4(1H)-one], with 59 nM; and `COc1ccc(/C(C)=C/n2c(C)cc(=O)cc2C)cc1OCC1CC1` [Example 103, (E)-1-(2-(3-cyclopropylmethoxy-4-methoxyphenyl)-2-methylethenyl)-2,6-dimethylpyridin-4(1H)-one], with 14 nM. Then `COc1ccc(/C=C/n2ccc(=O)cc2)cc1OCC1CC1` [Example 50, (E)-1-(3-cyclopropylmethoxy-4-methoxystyryl)pyridin-4(1H)-one], with 180 nM. The result for `CCCCCCOc1cc(C(=O)Cn2c(C)cc(=O)cc2C)ccc1OC` [Example 18, 1-(2-(3-n-hexyloxy-4-methoxyphenyl)-2-oxoethyl)-2,6-dimethylpyridin-4(1H)-one] reads 4.5 nM; that for `COc1ccc(C(=O)Cn2ccc(=O)cc2)cc1OCC1CC1` [Example 45, 1-(2-(3-cyclopropylmethoxy-4-methoxyphenyl)-2-oxoethyl)pyridin-4(1H)-one], 170 nM; that for `COc1ccc(/C=C(\C(N)=O)n2c(C)cc(=O)cc2C)cc1OCC1CC1` [Example 117], 3600 nM. For `COc1ccc(/C=C/n2ccc(=O)cc2C)cc1OCC1CC1` [Example 51, (E)-1-(3-cyclopropylmethoxy-4-methoxystyryl)-2-methylpyridin-4(1H)-one], the concentration for half-maximal inhibition (IC50) came to 57 nM. The result for `CC#CCOC(Cn1c(C)cc(=O)cc1C)c1ccc(OC)c(OCC2CC2)c1` (stereo not drawn) [Example 9, 1-(2-(but-2-yn-1-yloxy)-2-(3-cyclopropylmethoxy-4-methoxyphenyl)ethyl)-2,26-dimethylpyridin-4-(1H)-one] reads 25 nM; that for `COc1ccc(/C=C/n2c(C)cc(=O)cc2C)cc1OC1CCC1` [Example 61, (E)-1-(3-cyclobutyloxy-4-methoxy-styryl)-2,6-dimethylpyridin-4(1H)-one], 6.2 nM; that for `CSCOc1cc(/C=C/n2c(C)cc(=O)cc2C)ccc1OC(F)F` [Example 90, (E)-1-(3-methylthiomethoxy-4-difluoromethoxy-styryl)-2,6-dimethylpyridin-4(1H)-one], 3.8 nM. For the compound `COc1ccc(C(=O)Cn2c(C)cc(=O)cc2C)cc1OCCSC` [Example 35, 1-(2-(3-methylthioethoxy-4-methoxyphenyl)-2-oxoethyl)-2,6-dimethylpyridin-4(1H)-one], the IC50 was 32 nM. Then `CCN(CC)C(=O)/C(=C\n1c(C)cc(=O)cc1C)c1ccc(OC)c(OCC2CC2)c1` [Example 110, (Z)-2-(3-cyclopropylmethoxy-4-methoxyphenyl)-3-(2,6-dimethyl-4-carbonylpyridin-1(4H)-yl)-N,N-diethylacrylamide], with 460 nM; and `COc1ccc(/C=C/n2c(C)cc(=O)cc2C)cc1OCSC` [Example 74, (E)-1-(3-methylthiomethoxy-4-methoxystyryl)-2,6-dimethylpyridin-4(1H)-one], with 38 nM; and `COc1ccc(C(=O)Cn2c(C)cc(=O)cc2C)cc1OCCS(C)(=O)=O` [Example 37, 1-(2-(3-methylsulfoneethoxy-4-methoxyphenyl)-2-oxoethyl)-2,6-dimethylpyridin-4(1H)-one], with 510 nM. Then `Cc1cc(=O)cc(C)n1/C=C/c1ccc(OC(F)F)c(O[C@H]2CCSC2)c1` [Example 97, (S,E)-1-(3-(tetrahydrothiophen-3-yl)oxy-4-difluoromethoxystyryl)-2,6-dimethylpyridin-4(1H)-one], with 3.7 nM; and `Cc1cc(=O)cc(C)n1/C=C/c1ccc(OC(F)F)c(O[C@@H]2CCS(=O)(=O)C2)c1` [Example 102, (R,E)-1-(3-(1,1-dioxotetrahydrothiophen-3-yl)oxy-4-difluoromethoxystyryl)-2,6-dimethylpyridin-4(1H)-one], with 50 nM. The result for `CCCCOc1cc(/C=C/n2c(C)cc(=O)cc2C)ccc1OC` [Example 55, (E)-1-((3-n-butoxy-4-methoxy)-styryl)-2,6-dimethylpyridin-4(1H)-one] reads 54 nM; that for `COc1ccc(C(Cn2c(C)cc(=O)cc2C)OC(=O)C2CC2)cc1OCC1CC1` (stereo not drawn) [Example 4, (1-(3-cyclopropylmethoxy-4methoxyphenyl)-2-(2,6-dimethyl-4-carbonylpyridin-1(4H)-yl)ethyl) cyclopropylcarboxylate], 36 nM; that for `COc1ccc(/C(Cn2c(C)cc(=O)cc2C)=N/OCSC)cc1OCC1CC1` [Example 41, (Z)-1-(2-(3-cyclopropylmethoxy-4-methoxyphenyl)-2-(methylthiomethoxyimido)ethyl)-2,6-dimethylpyridin-4(1H)-one], 1.22 nM. Turning to `COc1ccc(/C(Cn2c(C)cc(=O)cc2C)=N/OCS(C)(=O)=O)cc1OCC1CC1` [Example 44, (Z)-1-(2-(3-cyclopropylmethoxy-4-methoxyphenyl)-2-(methylsulfonemethoxyimido)ethyl)-2,6-dimethylpyridin-4(1H)-one], the concentration for half-maximal inhibition (IC50) amounted to 30 nM.

As for `COc1ccc(/C=C/n2c(C)cc(=O)cc2C)cc1OCS(C)(=O)=O` [Example 76, (E)-1-(3-methylsulfonemethoxy-4-methoxystyryl)-2,6-dimethylpyridin-4(1H)-one], the IC50 is 105 nM.

With `COc1ccc(/C=C/n2c(C)cc(=O)cc2C)cc1OC1CC=CC1` [Example 63, (E)-1-(3-(cyclopent-3-en-1-yloxy)-4-methoxystyryl)-2,6-dimethylpyridin-4(1H)-one], the IC50 amounted to 11.1 nM. As to `COc1ccc(/C=C/n2c(C)cc(=O)cc2C)cc1O[C@H]1CCS(=O)(=O)C1` [Example 84, (S,E)-1-(3-((1,1-dioxotetrahydrothiophen-3-yl)oxy)-4-methoxy-styryl)-2,6-dimethylpyridin-4(1H)-one], the half-maximal inhibitory concentration (IC50) stood at 230 nM.

In the case of `COc1ccc(/C(Cn2c(C)cc(=O)cc2C)=N/O)cc1OCC1CC1` [Example 38-1, (Z)-1-(2-(3-cyclopropylmethoxy-4-methoxyphenyl)-2-(hydroxyimido)ethyl)-2,6-dimethylpyridin-4(1H)-one], the IC50 was found to be 1090 nM. In the case of `COc1ccc(/C=C(\C(=O)N(C)C)n2c(C)cc(=O)cc2C)cc1OCC1CC1` [Example 118], the IC50 is 320 nM.

As for `COc1ccc(/C=C/n2c(C)cc(=O)cc2C)cc1OC(C)C` [Example 54, (E)-1-(3-isopropoxy-4-methoxystyryl)-2,6-dimethylpyridin-4(1H)-one], the 50% inhibitory concentration (IC50) is 26 nM. Then `COc1ccc(/C(=C/n2c(C)cc(=O)cc2C)C(N)=O)cc1OCC1CC1` [Example 107, (Z)-2-(3-cyclopropylmethoxy-4-methoxyphenyl)-3-(2,6-dimethyl-4-carbonylpyridin-1(4H)-yl)-acrylamide], with 450 nM. Take `COC(=O)/C(=C\n1c(C)cc(=O)cc1C)c1ccc(OC)c(OCC2CC2)c1` [Example 112, (Z)-methyl 2-(3-cyclopropylmethoxy-4-methoxyphenyl)-3-(2,6-dimethyl-4-carbonylpyridin-1(4H)-yl)-acrylate]: the IC50 was 138 nM. Then `COc1cc(/C=C/n2c(C)cc(=O)cc2C)ccc1OC(F)F` [Example 89, (E)-1-(3-methoxy-4-difluoromethoxy-styryl)-2,6-dimethylpyridin-4(1H)-one], with 6.9 nM; and `COc1ccc(/C(=C/n2c(C)cc(=O)cc2C)c2ccccc2)cc1OCC1CC1` [Example 104-1, (E)-1-(2-(3-cyclopropylmethoxy-4-methoxyphenyl)-2-phenylethenyl)-2,6-dimethylpyridin-4(1H)-one], with 1700 nM; and `CCCCCOc1cc(C(=O)Cn2c(C)cc(=O)cc2C)ccc1OC` [Example 17, 1-(2-(3-n-pentyloxy-4-methoxyphenyl)-2-oxoethyl)-2,6-dimethylpyridin-4(1H)-one], with 16 nM. As for `CC#CCOc1cc(C(=O)Cn2c(C)cc(=O)cc2C)ccc1OC` [Example 29, 1-(2-(3-(but-2-yn-1-yloxy)-4-methoxyphenyl)-2-oxoethyl)-2,6-dimethylpyridin-4(1H)-one], the IC50 turned out to be 93 nM.
